Laboratory results as given in US8685970B2, “Quinolines and related analogs as sirtuin modulators” (GlaxoSmithKline, LLC, priority 2008, dated 2014).

Each compound was assayed against T1, SIRT1 (Homo sapiens, UniProt Q96EB6) (assay: Mass spectrometry based SIRT1 deacetylation assay (activation)). Settings: 10 nM SIRT1, 0.5 μM peptide substrate, 120 μM βNAD+, 25 min at 25° C.
T1 sequence (Q96EB6 1-747): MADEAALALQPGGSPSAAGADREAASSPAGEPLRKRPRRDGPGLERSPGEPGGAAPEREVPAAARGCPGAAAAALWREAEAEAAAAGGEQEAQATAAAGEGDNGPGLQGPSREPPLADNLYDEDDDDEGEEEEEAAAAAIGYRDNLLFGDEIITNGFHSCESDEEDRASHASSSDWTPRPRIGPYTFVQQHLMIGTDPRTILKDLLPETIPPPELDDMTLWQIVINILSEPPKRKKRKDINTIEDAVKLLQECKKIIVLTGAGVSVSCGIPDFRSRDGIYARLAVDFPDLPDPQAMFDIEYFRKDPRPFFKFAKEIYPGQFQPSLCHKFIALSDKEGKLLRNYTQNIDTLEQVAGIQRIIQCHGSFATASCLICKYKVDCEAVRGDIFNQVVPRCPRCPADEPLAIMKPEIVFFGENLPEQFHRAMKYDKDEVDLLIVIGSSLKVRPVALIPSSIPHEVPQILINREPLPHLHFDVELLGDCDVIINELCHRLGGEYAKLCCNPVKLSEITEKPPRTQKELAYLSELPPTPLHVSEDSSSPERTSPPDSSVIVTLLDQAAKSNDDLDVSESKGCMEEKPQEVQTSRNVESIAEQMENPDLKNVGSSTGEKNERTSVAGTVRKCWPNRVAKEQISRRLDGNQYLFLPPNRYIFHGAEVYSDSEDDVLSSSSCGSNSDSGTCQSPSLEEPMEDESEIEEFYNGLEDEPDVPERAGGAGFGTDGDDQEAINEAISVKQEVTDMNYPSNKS
Type: biochemical
Outline: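 Recombinant N-His-tagged SIRT1 (E. coli BL21(DE3)), 10 nM, incubated 25 min at 25 °C with 0.5 μM biotin/5TMR-labelled acetyl-p53-derived 20-mer peptide and 120 μM βNAD+ in Tris-acetate pH 8 buffer with DTT and BSA. Formic acid stop; MS quantifies acetylated vs deacetylated peptide. EC1.5 = concentration giving 150% activation versus DMSO.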
`FC(F)(F)c1ccc(-c2ccc3cccc(NCc4cccnc4)c3n2)cc1` [Compound 171] was tested, and the “EC1.5 (concentration of test compound that results in 150% activation of SIRT1)” value was “C (EC1.5>25 uM)”. For `c1cncc(CNc2cccc3ccc(-c4cccc(N5CCOCC5)c4)nc23)c1` [Compound 172], the “EC1.5 (concentration of test compound that results in 150% activation of SIRT1)” value was “C (EC1.5>25 uM)”. For `c1cncc(CNc2cccc3ccc(-c4cccc(N5CCCC5)c4)nc23)c1` [Compound 173], the “EC1.5 (concentration of test compound that results in 150% activation of SIRT1)” value was “C (EC1.5>25 uM)”. In the case of `O=C(Nc1cccc2ccc(-c3ccccc3O)nc12)c1cscn1` [Compound 174], the “% Fold Act. (percent maximum fold activation)” value is reported as “A (Fold activation >200%)” and the “EC1.5 (concentration of test compound that results in 150% activation of SIRT1)” value is reported as “B (EC1.5 1-25 uM)”. With `O=C(Nc1cccc2ccc(-c3ccccc3OCCN3CCOCC3)nc12)c1cscn1` [Compound 175] the “% Fold Act. (percent maximum fold activation)” value was “A (Fold activation >200%)” and the “EC1.5 (concentration of test compound that results in 150% activation of SIRT1)” value was “B (EC1.5 1-25 uM)”. For `O=C(Nc1cccc2ccc(-c3ccc(F)nc3)nc12)c1cscn1` [Compound 176], the “% Fold Act. (percent maximum fold activation)” value was “A (Fold activation >200%)” and the “EC1.5 (concentration of test compound that results in 150% activation of SIRT1)” value was “A (EC1.5<1.0 uM)”. In the case of `O=C(Nc1nc(CN2CCOCC2)cs1)c1cccc2ccc(-c3cccc(C(F)(F)F)c3)nc12` [Compound 177], the “% Fold Act. (percent maximum fold activation)” value is reported as “A (Fold activation >200%)” and the “EC1.5 (concentration of test compound that results in 150% activation of SIRT1)” value is reported as “A (EC1.5<1.0 uM)”. With `O=C(Nc1nc(CN2CCOCC2)cs1)c1cccc2ccc(-c3cccc(OC(F)(F)F)c3)nc12` [Compound 178] the “% Fold Act. (percent maximum fold activation)” value was “A (Fold activation >200%)” and the “EC1.5 (concentration of test compound that results in 150% activation of SIRT1)” value was “A (EC1.5<1.0 uM)”. In the case of `O=C(Nc1nccs1)c1cccc2ccc(-c3ccnc(N4CCC4)c3)nc12` [Compound 179], the “% Fold Act. (percent maximum fold activation)” value is reported as “A (Fold activation >200%)” and the “EC1.5 (concentration of test compound that results in 150% activation of SIRT1)” value is reported as “A (EC1.5<1.0 uM)”. For `O=C(Nc1nccs1)c1cccc2ccc(-c3cccnc3)nc12` [Compound 180], the “% Fold Act. (percent maximum fold activation)” value was “B (Fold Activation <200%)” and the “EC1.5 (concentration of test compound that results in 150% activation of SIRT1)” value was “A (EC1.5<1.0 uM)”. In the case of `O=C(Nc1cnccn1)c1cccc2ccc(-c3cccnc3)nc12` [Compound 181], the “EC1.5 (concentration of test compound that results in 150% activation of SIRT1)” value is reported as “C (EC1.5>25 uM)”. In the case of `O=C(Nc1ccccn1)c1cccc2ccc(-c3cccnc3)nc12` [Compound 182], the “% Fold Act. (percent maximum fold activation)” value is reported as “B (Fold Activation <200%)” and the “EC1.5 (concentration of test compound that results in 150% activation of SIRT1)” value is reported as “A (EC1.5<1.0 uM)”. In the case of `O=C(Nc1cccnc1)c1cccc2ccc(-c3cccnc3)nc12` [Compound 183], the “EC1.5 (concentration of test compound that results in 150% activation of SIRT1)” value is reported as “C (EC1.5>25 uM)”. With `O=C(Nc1ccccn1)c1cccc2cc(C(F)(F)F)c(-c3ccccc3)nc12` [Compound 184] the “EC1.5 (concentration of test compound that results in 150% activation of SIRT1)” value was “C (EC1.5>25 uM)”. With `O=C(Nc1cccc2ccc(-c3cccc(O)c3)nc12)c1cscn1` [Compound 185] the “% Fold Act. (percent maximum fold activation)” value was “B (Fold Activation <200%)” and the “EC1.5 (concentration of test compound that results in 150% activation of SIRT1)” value was “B (EC1.5 1-25 uM)”. With `O=C(Nc1cccc2ccc(-c3ccc(O)cc3)nc12)c1cscn1` [Compound 186] the “% Fold Act. (percent maximum fold activation)” value was “A (Fold activation >200%)” and the “EC1.5 (concentration of test compound that results in 150% activation of SIRT1)” value was “B (EC1.5 1-25 uM)”. In the case of `O=C(Nc1cccc2ccc(-c3cccc(C(F)(F)F)c3)nc12)c1cccc(OC[C@@H](O)CO)c1` [Compound 187], the “% Fold Act. (percent maximum fold activation)” value is reported as “A (Fold activation >200%)” and the “EC1.5 (concentration of test compound that results in 150% activation of SIRT1)” value is reported as “A (EC1.5<1.0 uM)”. For `O=C(Nc1ncc(CN2CCOCC2)s1)c1cccc2ccc(-c3cccc(C(F)(F)F)c3)nc12` [Compound 188], the “% Fold Act. (percent maximum fold activation)” value was “A (Fold activation >200%)” and the “EC1.5 (concentration of test compound that results in 150% activation of SIRT1)” value was “A (EC1.5<1.0 uM)”. In the case of `O=C(Nc1ncc(CN2CCOCC2)s1)c1cccc2ccc(-c3cccc(OC(F)(F)F)c3)nc12` [Compound 189], the “% Fold Act. (percent maximum fold activation)” value is reported as “A (Fold activation >200%)” and the “EC1.5 (concentration of test compound that results in 150% activation of SIRT1)” value is reported as “A (EC1.5<1.0 uM)”. With `O=C(Nc1nc(CN2CCOCC2)cs1)c1cccc2ccc(-c3cccnc3)nc12` [Compound 190] the “% Fold Act. (percent maximum fold activation)” value was “A (Fold activation >200%)” and the “EC1.5 (concentration of test compound that results in 150% activation of SIRT1)” value was “A (EC1.5<1.0 uM)”. For `O=C(Nc1ncc(CN2CCOCC2)s1)c1cccc2ccc(-c3cccnc3)nc12` [Compound 191], the “% Fold Act. (percent maximum fold activation)” value was “A (Fold activation >200%)” and the “EC1.5 (concentration of test compound that results in 150% activation of SIRT1)” value was “B (EC1.5 1-25 uM)”. In the case of `O=C(Nc1nccs1)c1cccc2cc(C(F)(F)F)c(-c3ccccc3)nc12` [Compound 192], the “EC1.5 (concentration of test compound that results in 150% activation of SIRT1)” value is reported as “C (EC1.5>25 uM)”. For `O=C(Nc1cccnc1)c1cccc2cc(C(F)(F)F)c(-c3ccccc3)nc12` [Compound 193], the “EC1.5 (concentration of test compound that results in 150% activation of SIRT1)” value was “C (EC1.5>25 uM)”. With `O=C(Nc1ncnc2ccc(-c3cccc(OC(F)(F)F)c3)nc12)c1ccccn1` [Compound 194] the “% Fold Act. (percent maximum fold activation)” value was “A (Fold activation >200%)” and the “EC1.5 (concentration of test compound that results in 150% activation of SIRT1)” value was “A (EC1.5<1.0 uM)”. For `O=C(Nc1cccc2ccc(-c3cccc(C(F)(F)F)c3)nc12)c1cocn1` [Compound 195], the “% Fold Act. (percent maximum fold activation)” value was “B (Fold Activation <200%)” and the “EC1.5 (concentration of test compound that results in 150% activation of SIRT1)” value was “A (EC1.5<1.0 uM)”. With `Cc1ncccc1-c1ccc2cccc(NC(=O)c3cscn3)c2n1` [Compound 196] the “% Fold Act. (percent maximum fold activation)” value was “A (Fold activation >200%)” and the “EC1.5 (concentration of test compound that results in 150% activation of SIRT1)” value was “A (EC1.5<1.0 uM)”. For `Cc1cc(-c2ccc3cccc(NC(=O)c4cscn4)c3n2)ccn1` [Compound 197], the “% Fold Act. (percent maximum fold activation)” value was “A (Fold activation >200%)” and the “EC1.5 (concentration of test compound that results in 150% activation of SIRT1)” value was “A (EC1.5<1.0 uM)”. With `Cc1ccc(-c2ccc3cccc(NC(=O)c4cscn4)c3n2)cn1` [Compound 198] the “% Fold Act. (percent maximum fold activation)” value was “A (Fold activation >200%)” and the “EC1.5 (concentration of test compound that results in 150% activation of SIRT1)” value was “A (EC1.5<1.0 uM)”. For `O=C(Nc1cccc2ccc(-c3cncc(F)c3)nc12)c1cscn1` [Compound 199], the “EC1.5 (concentration of test compound that results in 150% activation of SIRT1)” value was “C (EC1.5>25 uM)”. For `O=C(Nc1cccc2ccc(-c3cccc(N4CCOCC4)c3)nc12)c1cscn1` [Compound 200], the “% Fold Act. (percent maximum fold activation)” value was “A (Fold activation >200%)” and the “EC1.5 (concentration of test compound that results in 150% activation of SIRT1)” value was “A (EC1.5<1.0 uM)”. In the case of `O=C(Nc1cccc2ccc(-c3cccc(N4CCCC4)c3)nc12)c1cscn1` [Compound 201], the “EC1.5 (concentration of test compound that results in 150% activation of SIRT1)” value is reported as “C (EC1.5>25 uM)”. With `CN1CCOc2cc(-c3ccc4cccc(NC(=O)c5cscn5)c4n3)ccc21` [Compound 202] the “% Fold Act. (percent maximum fold activation)” value was “A (Fold activation >200%)” and the “EC1.5 (concentration of test compound that results in 150% activation of SIRT1)” value was “A (EC1.5<1.0 uM)”. With `O=C(Nc1cccc2ccc(-c3cccc(C(F)(F)F)c3)nc12)c1cccc(OC[C@@H](O)CO)n1` [Compound 203] the “% Fold Act. (percent maximum fold activation)” value was “A (Fold activation >200%)” and the “EC1.5 (concentration of test compound that results in 150% activation of SIRT1)” value was “A (EC1.5<1.0 uM)”. With `O=C(Nc1cccc2ccc(-c3cccc(C(F)(F)F)c3)nc12)c1cccs1` [Compound 204] the “% Fold Act. (percent maximum fold activation)” value was “B (Fold Activation <200%)” and the “EC1.5 (concentration of test compound that results in 150% activation of SIRT1)” value was “B (EC1.5 1-25 uM)”. For `COc1cccc(C(=O)Nc2cccc3ccc(-c4cccc(C(F)(F)F)c4)nc23)c1` [Compound 205], the “% Fold Act. (percent maximum fold activation)” value was “B (Fold Activation <200%)” and the “EC1.5 (concentration of test compound that results in 150% activation of SIRT1)” value was “B (EC1.5 1-25 uM)”. `O=C(Nc1cccc2ccc(-c3cccc(C(F)(F)F)c3)nc12)c1csc(-c2ccccc2)n1` [Compound 206] was tested, and the “EC1.5 (concentration of test compound that results in 150% activation of SIRT1)” value was “C (EC1.5>25 uM)”. For `O=C(Nc1cccc(OC[C@@H](O)CO)c1)c1cccc2ccc(-c3cccc(C(F)(F)F)c3)nc12` [Compound 207], the “% Fold Act. (percent maximum fold activation)” value was “A (Fold activation >200%)” and the “EC1.5 (concentration of test compound that results in 150% activation of SIRT1)” value was “A (EC1.5<1.0 uM)”. For `O=C(Nc1ccncn1)c1cccc2ccc(-c3cccnc3)nc12` [Compound 208], the “EC1.5 (concentration of test compound that results in 150% activation of SIRT1)” value was “C (EC1.5>25 uM)”.
